# Test results taken from patent publication US20230277483A1, “COMPOSITIONS AND METHODS TO TREAT INFLAMMATION” (University of Iowa Research Foundation, priority 2022, published 2023).
# Key:
# [1] = system: oral and fecal microbiomes of obese mice; test: Oral and fecal microbiome composition (16S rRNA) in DIO mice; format: in vivo, mouse; conditions: 100 μl of HCA at 0.2 and 0.5 μM I.P. three times a week for 3 weeks
# Experimental: HCA promotes proliferation of health related bacteria and inhibits proliferation and attachment of periodontopathogenic bacteria. Promoting the growth of health-related commensal bacteria while inhibiting proliferation and attachment of pathogenic bacteria may be effective at preventing or treating periodontal inflammation. To determine if HCA has an effect on the growth properties of commensal bacteria and periodontopathogens, HCA at different concentrations was added to aerobic culture of S. mitis and S. oralis and anaerobic culture of T. denticola as described in our published manuscript (see detail in Shu et al, Journal of Periodontology, 2022). FIGS. 18A-C summarize the functions of HCA on the proliferation of specific commensal and pathogenic bacteria. […] Furthermore, the function of HCA on P. gingivalis attachment, a key parameter of adhesion and biofilm formation by periodontopathogenic bacteria, was investigated. […] The composition of the microbiomes was determined by amplifying the V3 and V4 regions of the 16S rRNA genes. Raw data in FASTQ format were filtered and denoised using DADA2 (Divisive Amplicon Denoising Algorithm) to generate amplicon sequence variants (ASV) or operational taxonomical units (OTUs) that were then analyzed by QIIME2.
# [2] = system: Pg; test: Pg attachment (early biofilm formation, colonization) on culture plates; format: cell-based, Porphyromonas gingivalis
# Experimental: (§1) Sg metabolites promote commensal bacterial proliferation and inhibit periodontopathogenic bacterial proliferation and colonization. Commensal bacteria, Sg, S. sanguinis (Ss, ATCC10556), S. mitis (Sm, ATCC49456) and S. oralis (So, ATCC 35037) were cultured in BHI medium. In addition, pathogenic bacteria, Pg was cultured using BHI and Tf (ATCC43037), and Td (ATCC 35405) were grown in Thioglycollate medium with vitamin K and Hemin in 90% N2, 5% H2, 5% CO2. The Sg metabolites were diluted using DMEM and added to the bacteria with the similar OD600 value. The same amount of DMEM was used as a control. During the exponential growth of bacteria, the OD600 value was measured to determine the proliferation. […] In addition, to determine the function of Sg metabolites on Pg colonization, Pg were inoculated in 24-well plates containing BHI or BHI supplemented with DMEM or Sg metabolites. […]
# (§2) HCA promotes proliferation of health related bacteria and inhibits proliferation and attachment of periodontopathogenic bacteria. […] The composition of the microbiomes was determined by amplifying the V3 and V4 regions of the 16S rRNA genes. Raw data in FASTQ format were filtered and denoised using DADA2 (Divisive Amplicon Denoising Algorithm) to generate amplicon sequence variants (ASV) or operational taxonomical units (OTUs) that were then analyzed by QIIME2.
# [3] = system: Pg (ATCC 49417); test: Pg proliferation measured by OD600 under HCA; format: cell-based, Porphyromonas gingivalis; conditions: HCA at 0.1 and 10 μM; after 48 and 72 hrs vs untreated controls
# Experimental: Pg (ATCC 49417), a key pathogen of periodontitis, was cultured at 24 well-plates with BHI medium at 90% N2, 5% H2, 5% CO2. HCA at 0.1 and 10 μM was applied.
# [4] = system: S. mitis (Sm, ATCC49456); test: Bacterial proliferation (growth profile); format: cell-based, Streptococcus mitis; conditions: HCA at 0.1 μM; aerobic culture
# Experimental: as §1, §2
smiles,measurement,setting,value
"O=C(O)CCCCCO [HCA, 6-hydroxycaproic acid]",effect on composition of the microbiomes,[1],dose dependent
same,representation of Streptococcus danieliae and other unclassified streptococci in the oral microbiome,[1],large increases
same,attachment of P. gingivalis,[2]; HCA at 0.01 μM,less of an effect
same,attachment of P. gingivalis,"[2]; HCA at 0.05 μM vs untreated control, optical density",significantly reduced
same,OD600 value of Pg,[3],significantly reduced
same,proliferation of S. mitis,[4],improve proliferation
